Reference: patent US20170143748A1, “ANTI-TUMOR PHARMACEUTICAL APPLICATION OF PENTACYCLIC TRITERPENE SAPONIN COMPOUNDS OF SZECHUAN MELANDIUM ROOT” (priority 2014, published 2017)
Several values for one entry are separate records, joined by “and”; a condition that tells them apart may be missing. Identical values can stand only once.

Columns and labels:
HT29 human colon cancer = assay: Anti-HT29 human colon cancer in BALB/c (nu/nu) nude mice; type: in vivo; design: body weight of HT29-bearing nude mice / tumor volume of HT29-bearing nude mice / Tumor mass: unit not given here; settings: for body weight of HT29-bearing nude mice / tumor volume of HT29-bearing nude mice: Sc; for Inhibition rate: from average tumor mass vs model; for Tumor index: tumor mass/body weight
Protocol: Human resources Colon cancer cell line HT29 was cultured in the same condition as the experiment 4. […] Mice were randomly assigned into 7 groups: […] The body weight and the tumor volume were measured and recorded weekly. The tumor volume was calculated according to the formula below. […] The tumors were departed and weighed.

A875 = assay: MTT inhibition of tumor cells in vitro (Example 3); type: cell-based, Human; settings: 40 μg/mL, 48 hours
Protocol: (§1) Human resources tumor cell line […], […], HT29, MCF-7 and A875 were provided by Cancer Hospital, Chinese Academy of Medical Sciences.
(§2) Cells were passaged every 2 or 3 days, and all the experiments were carried out on exponentially growing cells.
(§3) All cells were cultured in a humidified atmosphere (5% CO2 and […]), and passaged every 2 or 3 days. Cells were harvested on exponentially growing phase, and cell suspension was prepared with 2×10^4 cells/mL, added with 100 μL per well of 96-well plates, and cultured for 24 h in incubator. 100 μL medium without cells was added per well as blank group.
(§4) Compound (1), (2), (3), (4), (7) or (8) was dissolved in DMSO respectively, and diluted with 1640 medium at a final concentration of 400 μg/mL, so as to that of the Cisplatin. Cells were divided into 9 groups, they were blank group, model group, Compound (1), (2), (3), (4), (7) and (8) groups, and Cisplatin group as the positive one, 6 wells per group.
(§5) Before drug administration, supernatant of each well was removed and fresh 1640 medium was added, 180 μL per well. Compounds and Cisplatin were added with 20 μL per well respectively at a final concentration of 40 μg/mL. Wells of blank and model groups were added with 0.5% DMSO, 20 μL per well. 48 hours later, 20 μL MTT was added per well and continued to culture for 4 hours, then the supernatant was replaced carefully and DMSO was added with 150 μL per well to end the experiment. The 96-well plates were shaken for 10 mins and read the absorbance at 490 nm. The Inhibition rate was calculated.
(§6) Inhibition rate=[(ODmodel−ODblank)−(ODdrugs−ODblank)]/(ODmodel−ODblank)×100%
(§7) The MTT experiment was repeated three times.

MCF-7 = assay: MTT inhibition of tumor cells in vitro (Example 3); type: cell-based, Human; settings: 40 μg/mL, 48 hours
Protocol: as §1, §2, §3, §4, §5, §6, §7

[1] = system: BGC823 human gastric adenocarcinoma; assay: Anti-BGC823 human gastric adenocarcinoma in BALB/c (nu/nu) nude mice; type: in vivo; design: tumor volume of BGC823-bearing nude mice / Tumor mass: unit not given here; settings: for body weight of BGC823-bearing nude mice / tumor volume of BGC823-bearing nude mice: Sc; for body weight of BGC823-bearing nude mice: in g (unit assumed)
Protocol: Human resources gastric adenocarcinoma cell line BGC823 was cultured in the same condition as the experiment 4.
The body weight and the tumor volume were measured and recorded weekly. The tumor volume was calculated according to the formula below.
Tumors were departed and weighed. Tumor Index and inhibition rate were calculated as below: […]

HepG2 human heptoma = assay: Anti-HepG2 human heptoma in BALB/c (nu/nu) nude mice; settings: for tumor volume of HepG2-bearing nude mice: Sc
Protocol: 70 male BALB/c (nu/nu) nude mice (18-20 g, License NO. SCXK (BJ) 2009-0017, National Institutes for Food and Drug Control.) were adaptively bred for one week, and then used in the following experiment.
Human resources hepatoma cell line HepG2 was cultured in RPMI-1640 medium containing 100 U/mL Penicillin and 100 μg/mL Streptomycin with 10% fetal bovine serum and maintained at 37° C. in a humidified atmosphere (5% CO2 and […]).
70 BALB/c (nu/nu) nude mice were adaptively bred for 1 week, HepG2 cells were inoculated subcutaneously into the back of nude mice, 1×10^7 cells per mouse. […] 3 days after inoculation, mice of every therapeutic group were all given the relevant compounds or drugs for 3 weeks, and others were given isodose physiological saline.
The body weight and the size of tumor were measured and recorded weekly. The tumor volume was calculated with the formula below:
tumor volume V=π/6×a×b^2 (a, b means the transverse and longitudinal length of tumor)
At the end of administration, mice were fastened for 8 hours, weighed the fasting body weight, dropped off eyeball to collect blood, centrifuged and collected serum for next experiment. The tumors were departed and weighed. Tumor Index and inhibition rate were calculated as below:
Tumor Index=Tumor mass (mg)/body weight of animal (g)
Inhibition rate=(Average tumor massControl group−Average tumor massadministration group)/Average tumor massControl group×100%
Mice in the model group were injected with sterile water (10 ml/kg BW), Sc. All the animals were treated at 9 am for 3 weeks.
Determination of body weights: Body weights of animals were weighed and recorded once a week.
Tumor measurement: The transverse and longitudinal lengths of tumor were measured with vernier caliper weekly.
End of the experiment: After mice being administrated for 3 weeks (21 days), the experiment was terminated.

HepG2 = assay: MTT inhibition of tumor cells in vitro (Example 3); type: cell-based, Human; settings: 40 μg/mL, 48 hours
HT29 = assay: MTT inhibition of tumor cells in vitro (Example 3); type: cell-based, Human; settings: 40 μg/mL, 48 hours
Protocol: as §1, §2, §3, §4, §5, §6, §7

BGC823 = assay: MTT inhibition of tumor cells in vitro (Example 3); type: cell-based, Human; settings: 40 μg/mL, 48 hours
Protocol: as §1, §2, §3, §4, §5, §6, §7

[2] = 1 W, mg/kg BW: total saponins 1.5, Compound 1, combination 1 & 19, PTX 20
[3] = 2 W, mg/kg BW: total saponins 1.5, Compound 1, combination 1 & 19, PTX 20
[4] = 3 W, mg/kg BW: total saponins 1.5, Compound 1, combination 1 & 19, PTX 20
[5] = HT29-bearing nude mice, after 3 weeks
[6] = 1 W, mg/kg BW: total saponins 1.5, Compound 1, combination 1 & 19, 5-FU 20
[7] = 2 W, mg/kg BW: total saponins 1.5, Compound 1, combination 1 & 19, 5-FU 20
[8] = 3 W, mg/kg BW: total saponins 1.5, Compound 1, combination 1 & 19, 5-FU 20

Compound: CC(=O)O[C@H]1C(=O)[C@@]2(C)[C@H]([C@H](OC(=O)c3ccccc3)[C@]3(O)C[C@H](OC(=O)[C@H](O)[C@@H](NC(=O)c4ccccc4)c4ccccc4)C(C)=C1C3(C)C)[C@]1(OC(C)=O)CO[C@@H]1C[C@@H]2O [PTX, Paclitaxel, reference compound]
- body weight of HT29-bearing nude mice (HT29 human colon cancer; 0 W, mg/kg BW: total saponins 1.5, Compound 1, combination 1 & 19, PTX 20): 20.60 ± 1.32
- body weight of HT29-bearing nude mice (HT29 human colon cancer; [2]): 20.30 ± 1.68
- tumor volume of HT29-bearing nude mice (HT29 human colon cancer; [2]): 943.55 ± 516.62
- body weight of HT29-bearing nude mice (HT29 human colon cancer; [3]): 19.80 ± 1.77
- tumor volume of HT29-bearing nude mice (HT29 human colon cancer; [3]): 996.66 ± 347.05
- body weight of HT29-bearing nude mice (HT29 human colon cancer; [4]): 19.20 ± 1.37
- tumor volume of HT29-bearing nude mice (HT29 human colon cancer; [4]): 801.38 ± 259.34
- Inhibition rate (HT29 human colon cancer; [5]): 60.81%
- Tumor index (HT29 human colon cancer; [5]): 0.06 ± 0.03

Compound: sinocrassuloside VI [Compound (1)]
- tumor volume of HT29-bearing nude mice (HT29 human colon cancer; [2]): 1094.99 ± 678.00
- tumor volume of HT29-bearing nude mice (HT29 human colon cancer; [3]): 907.89 ± 738.11
- tumor volume of HT29-bearing nude mice (HT29 human colon cancer; [4]): 814.93 ± 450.73
- Inhibition rate (HT29 human colon cancer; [5]): 50.44%
- Tumor mass (HT29 human colon cancer; HT29-bearing nude mice, after 3 weeks, mg/kg BW: total saponins 1.5, Compound 1, combination 1 & 19, PTX 20): 1.15 ± 0.52
- Tumor index (HT29 human colon cancer; [5]): 0.05 ± 0.02
- Inhibition rate, A875 (A875): 88.02 ± 12.57%
- Inhibition rate, MCF-7 (MCF-7): 83.12 ± 2.33%
- body weight of BGC823-bearing nude mice ([1]; 0 W, mg/kg BW: total saponins 1.5, Compound 1, combination 1 & 19, 5-FU 20): 20.30 ± 1.06
- tumor volume of BGC823-bearing nude mice [1, 6]: 850.16 ± 539.70
- body weight of BGC823-bearing nude mice [1, 6]: 21.50 ± 1.18
- tumor volume of BGC823-bearing nude mice [1, 7]: 997.88 ± 499.61
- body weight of BGC823-bearing nude mice [1, 7]: 22.70 ± 1.16
- tumor volume of BGC823-bearing nude mice [1, 8]: 845.04 ± 239.21
- body weight of BGC823-bearing nude mice [1, 8]: 23.70 ± 1.06
- Inhibition rate ([1]; BGC823-bearing nude mice, after 3 weeks, from average tumor mass vs model): 64.54% and 61.54%
- Tumor mass ([1]; BGC823-bearing nude mice, after 3 weeks, mg/kg BW: total saponins 1.5, Compound 1, combination 1 & 19, 5-FU 20): 1.05 ± 0.36
- Tumor index ([1]; BGC823-bearing nude mice, after 3 weeks, tumor mass/body weight): 0.04 ± 0.02
- tumor volume of HepG2-bearing nude mice (HepG2 human heptoma; 1 W, mg/kg BW: total saponins 1.5, Compound 1, combination 1 & 39, Cytoxan 40): 922.51 ± 624.95
- tumor volume of HepG2-bearing nude mice (HepG2 human heptoma; 2 W, mg/kg BW: total saponins 1.5, Compound 1, combination 1 & 39, Cytoxan 40): 1060.32 ± 570.38
- tumor volume of HepG2-bearing nude mice (HepG2 human heptoma; 3 W, mg/kg BW: total saponins 1.5, Compound 1, combination 1 & 39, Cytoxan 40): 1033.33 ± 656.54
- Inhibition rate (HepG2 human heptoma; HepG2-bearing nude mice, after 3 weeks, from average tumor mass vs model): 80.05%
- Tumor mass (HepG2 human heptoma; HepG2-bearing nude mice, after 3 weeks, mg/kg BW: total saponins 1.5, Compound 1, combination 1 & 39, Cytoxan 40): 0.59 ± 0.29
- Tumor index (HepG2 human heptoma; HepG2-bearing nude mice, after 3 weeks, tumor mass/body weight): 0.03 ± 0.01

Compound: sinocrassuloside VIII [Compound (3)]
- Inhibition rate, HepG2 (HepG2): 74.35 ± 1.51%
- Inhibition rate, HT29 (HT29): 56.62 ± 4.24%
- Inhibition rate, A875 (A875): 68.35 ± 5.37%
- Inhibition rate, MCF-7 (MCF-7): 90.12 ± 7.43%
- Inhibition rate, BGC823 (BGC823): 92.09 ± 1.13%

Compound: sinocrassuloside XII [Compound (7)]
- Inhibition rate, HepG2 (HepG2): 21.83 ± 1.53%
- Inhibition rate, HT29 (HT29): 62.67 ± 3.12%
- Inhibition rate, A875 (A875): 55.64 ± 9.88%
- Inhibition rate, MCF-7 (MCF-7): 58.12 ± 6.26%
- Inhibition rate, BGC823 (BGC823): 77.08 ± 5.73%
